Key:
[1] = tested on: cells; assay: MTT assay for cell viability (cell toxicity); assay type: cell-based; settings: highest concentration tested 1 mM
Experimental: BABIM, SW066, and DAP092 were assessed for cell toxicity using the MTT assay for cell viability described in T. Mossman, J. Immunol. Methods 65, 55-63 (1983). […] 10 μl of MTT reagent was added to each wall and incubated for four hours at 38° C. Acid-isopropanol was added to stop the reaction and plates were read within one hour at 570 nm and 630 nm. The 630 nm reading was subtracted from the 570 nm reading. No toxicity was reported for BABIM.

[2] = tested on: Delaware Variant A strain of IBDV; assay: In vitro IBDV replication assay in chick embryo fibroblasts (viral antigen capture ELISA); settings: compounds maintained in the culture medium throughout
[3] = tested on: APHIS isolate of IBDV; assay: In vivo drug treatment of IBDV-challenged SPF leghorn chickens (Example 10); settings: for appearance of bursas upon necropsy: 20 mg/kg nares/cloaca; for appearance of bursas upon necropsy / Lymphocyte Population Per Gram of Bursal tissue, Percentage Uninfected Control: three days; for Lymphocyte Population Per Gram of Bursal tissue, Percentage Uninfected Control: 100 EID APHIS IBDV at three weeks of age, 20 mg/kg, half in the nares, half in the cloaca; for lymphocyte populations: three days after infection
Experimental: SPF leghorn chickens were challenged at three weeks of age with an 100 EID APHIS isolate of IBDV. Approximately 12 birds were contained in an isolator unit with four units being employed. In each isolator unit, two birds received either drug or a placebo. One unit contained uninfected controls. The birds are treated with the drugs SW066, DAP092, DB453, DB197, and DB203 for three days. Half of the drug dosage was administered in the nares, while the second half was administered in the cloaca, at a dosage of 20 mg/kg. At necropsy, the birds were weighed, their bursa removed, weighed, and ground with a tissue homogenizer. The ground bursa material was evaluated for lymphocyte counts and viral load.

[4] = tested on: APHIS strain IBDV; assay: Leghorn drug study (Example 13); assay type: in vivo, Leghorns; settings: for protection against IBDV (rank order): 100 EID APHIS IBDV, one mL of 4 mg/ml orally at challenge, 24 and 48 hours PI, necropsy three days post-challenge
Experimental: The procedure according to Example 12 was carried out with the following modifications: the drugs SW066, DB197, DB528, DB203 and DAP092 were tested in three week old Leghorns for protection against 100 EID of APHIS strain IBDV. The drugs were suspended in histidine-saline and used at a concentration of 4 mg/ml. One mL of drug was administered orally on the day of challenge (30 minutes prior to challenge), 24 hours PI and 48 hours PI. Birds were euthanised by CO2 inhalation and necropsied at three days post-challenge. Each drug and placebo cohort consisted of eight leghorns. Birds were weighed and sorted on the day of challenge to co-mingle birds of different weights and monitor drug dose per body weight. Birds were raised in isolation units. Each unit held 12 birds, two birds for each of the six cohorts (i.e., placebo, SW066, DB197, DB528, DB203 and DAP092). In addition, 12 uninfected birds were housed in a separate isolation unit.
The viral load of the bursa was determined by antigen capture ELISA, as described in Example 2, while absolute lymphocyte cell counts were determined by hemocytometer.

[5] = tested on: IBDV; assay: Trypsin competition experiment; assay type: cell-based, infectious bursal disease virus; settings: trypsin 1 mg/ml added to the cells in culture
Experimental: It is known that the addition of trypsin can enhance the attachment and penetration of respiratory syncytial virus and rotavirus. A trypsin competition experiment was performed in order to confirm that the activity of the inventive compounds of the present invention is not the result of protease-mediated virus attachment or penetration, as follows: trypsin (1 mg/ml) was added to the cells in culture described above in Example 6.

[6] = tested on: IBDV; assay: Virucidal effect: viability of virions produced in the presence of drug, second set of CEF cultures; assay type: cell-based, infectious bursal disease virus
Experimental: IBDV-infected cells were treated with varying concentrations (0.01 μM, 0.1 μM, 1 μM, 10 μM and 100 μM) of SW066 for 24 hours. After 24 hours, SW066 was washed away from the cell. After 72 hours of total incubation time (i.e., after the life cycle of IBDV is predicted to be complete), the resulting virions were harvested, as described above.
In order to determine if the virions produced in the presence of drug are viable, varying dilutions of these viral preparations were used to inoculate a second set of CEF cultures. Concentrations of the viral dilutions were as follows: 1.00E-10, 1.00E-09, 1.00E-08, 1.00E-07, 1.00E-06 and 1.00E-05. After 72 hours of incubation, cells were treated by a freeze-thaw method to harvest viral particles, and were assayed by ELISA as described in Example 2.

[7] = tested on: IBDV; assay type: cell-based, infectious bursal disease virus
[8] = tested on: IBDV Variant A; assay type: cell-based, infectious bursal disease virus; settings: 0.1 mM drug
[9] = tested on: APHIS IBDV strain; assay: Evaluation of drug effect to prevent or inhibit IBD, SW066 intravenous and prodrug oral (Example 12); assay type: in vivo, chicks
Experimental: The procedure according to Example 11 was carried out, with a variation in which chicks were placed in six groups of ten birds each, as follows: (1) no virus control (oral placebo), (2) no virus control (SW066 intravenous), (3) no virus control (prodrug of SW066 oral), (4) APHIS IBDV strain 130 EID (oral placebo), (5) APHIS IBDV strain 130 EID (SW066 intravenous), and (6) APHIS IBDV strain 130 EID (prodrug of SW066 oral). The birds were challenged at three weeks of age with 100 μl of APHIS strain divided between the eye and nares. Drug was administered intravenously or orally. The prodrug version of SW066 was used via the oral route to enhance absorption. Daily drug treatment began the same day and thirty minutes prior to challenge. After seven days, survivors were sacrificed and necropsied.

[10] = tested on: APHIS IBDV strain; assay: Evaluation of drug effect to prevent or inhibit IBD, oral SW066 (Example 11); assay type: in vivo, chicks
Experimental: Chicks were placed in four groups of nine birds each. The four groups were: (1) no virus control (placebo), (2) no virus control (treated with SW066), (3) APHIS IBDV strain at 130 EID (placebo), and (4) APHIS IBDV strain at 130 EID (treated with SW066). The birds were challenged at two weeks of age with 10 μL of the APHIS strain divided between the eye and nares. The drug was administered orally, one mL at a concentration of five mg/mL. […] Daily drug treatment began the same day and 30 minutes prior to challenge. After seven days, survivors were sacrificed and necropsied.
The virus is believed to cause necrosis in the bursa and to reach a plateau of virus level at three days post-challenge. As the inflammation begins to subside, the organ decreases in size and is severely atrophied at seven to ten days post-challenge. The bursa weight is accordingly a measure of bursal disease severity and was used in this experiment to detect differences between treatment groups.

For `N=C(N)c1ccc2nc(Cc3nc4ccc(C(=N)N)cc4[nH]3)[nH]c2c1` [BABIM], the “cell toxicity (MTT assay)” value [1] was “No toxicity” and the “inhibition of IBDV replication (virion formation)” value [2] was “most significant decrease of virion formation”.

For `Cc1cnc(-c2ccc(C3=NCCN3)cc2)nc1-c1ccc(C2=NCCN2)cc1` [DB197], the “appearance of bursas upon necropsy” value [3] was “appeared identical to those from the uninfected control group”, the “Lymphocyte Population Per Gram of Bursal tissue, Percentage Uninfected Control” value [3] was 60.5 Percentage Uninfected Control and the lymphocyte populations [3] was “maintenance of relatively normal lymphocyte populations”. The “protection against IBDV (rank order)” value [4] was “the most protection”, the “lymph per bursa cell number versus uninfected controls” value ([4]; t-test, p-value=0.01) was “significantly different from uninfected controls” and the “lymph per bursa cell number (rank among groups)” value ([4]; three days post-challenge) was “the highest”.

With `COc1cc(C2=NCCN2)ccc1-c1ccnc(-c2ccc(C3=NCCN3)cc2)n1` [DB203] the “appearance of bursas upon necropsy” value [3] was “appeared identical to those from the uninfected control group”, the “Lymphocyte Population Per Gram of Bursal tissue, Percentage Uninfected Control” value [3] was 51.3 Percentage Uninfected Control and the lymphocyte populations [3] was “maintenance of relatively normal lymphocyte populations”. For the same compound, the “protection against IBDV (rank order)” value [4] was “DB197>DB203>DB528>DAP092>SW066”.

For `N=C(N)c1ccc2oc3ccc(C(=N)N)cc3c2c1` [SW066], the “Lymphocyte Population Per Gram of Bursal tissue, Percentage Uninfected Control” value [3] was 4.3 Percentage Uninfected Control, the “cell toxicity (MTT assay)” value [1] was “some toxicity may be associated” and the “effect of the presence of trypsin on the drug's activity” value [5] was “not found to inhibit the drug's activity”. The “long term drug effect in the second set of cultures” value ([6]; 10 μM of drug) was “long term drug effect was also observed for some virus dilutions”, the “duration of the virucidal effect” value ([6]; drug for 24 hours then washed away, virions harvested at 72 hours) was “not transient” and the “virus propagation in the second set of cultures” value ([6]; first set of cultures treated at 100 μM, with the exception of the 10^-5 dilution of virus) was “did not propagate virus”. For the same compound, the “lowest concentration of drug that demonstrated anti-viral activity” value ([6]; with the 10^-10 dilution of virus) was 1 µM, the “inhibition of IBDV replication (virion formation)” value [2] was “most significant decrease of virion formation” and the “virus production when drug is added after infection” value ([7]; added after 12 hours) was “very little potential effect on virus production”. For the same compound, the “virus replication when drug is added after infection” value ([7]; added prior to the 12 hour incubation time point) was “potentially substantial inhibition of virus replication”, the “virus production when drug is removed by washing” value ([7]; drug remains in the culture past the one hour time point) was “significant decrease in virus production” and the “virion formation when drug is removed by washing” value ([7]; removed prior to one hour) was “little or no affect on virion formation”. The “effectiveness in decreasing virion formation (comparison of the three compounds)” value [8] was “most effective”, the “effect in reducing IBDV production” value ([8]; even at the high concentrations of virus) was “significant effect in reducing IBDV production” and the “cytopathic effect (CPE), inverted microscope” value ([8]; highest concentration of virus) was “Very little CPE”. The “bursa weight of survivors, difference between groups” value ([9]; SW066 intravenous or prodrug oral, seven days) was “No statistical significant difference”, the mortality ([9]; SW066 intravenous, APHIS IBDV 130 EID, ten birds, placebo 40%) was 10% and the “protection against IBDV (rank order)” value [4] was “DB197>DB203>DB528>DAP092>SW066”. The “bursa weights versus placebo group” value ([10]; 130 EID APHIS IBDV, oral one mL of five mg/mL daily, seven days, p=0.05) was “higher in the drug treatment group compared to the placebo group”, the “post-challenge titers, infected drug versus placebo group” value ([10]; 130 EID APHIS IBDV, oral, seven days) was “not significantly different” and the “deaths in the challenge group” value ([10]; groups of nine birds, same number died with placebo) was “Two birds died”. The bursa histology score ([10]; infected birds, placebo group all scored four, remaining drug birds scored four) was “two birds in the drug group (n=7) were scored as three” and the “protection from IBDV induced B-cell depletion” value ([10]; oral, 130 EID) was “some protection”.

— US6774144B1, “Methods and formulations for the treatment of infectious bursal disease in avian subjects” (The University of North Carolina at Chapel Hill, priority 1999, dated 2004)
